The values that follow are results of earlier work, collected in publication PMC3459150 (Atherosclerosis, 2012).

Data set [1] deals with dyslipidemic mouse models.
For data set [2] the following is noted: apo E null mice.
The subject of data set [3] is apoE null mice. Particulars: chronic administration.

Turning to DWFKAFYDKVAEKFKEAF [4F], in data set [1], the Inhibition of atherosclerosis entry is “able to inhibit atherosclerosis” and the Plasma cholesterol levels entry was “without changing plasma cholesterol levels”. Further, the Half-time of clearance in data set [2] (peritoneally-injected) was 2.01 h.
Take “LRKLRKRLLRDWLKAFYDKVAEKLKEAF [Ac-hE18A-NH2]”: the “Atheroprotection / inhibition of atherosclerosis” value in data set [3] is “inhibits atherosclerosis”. In data set [2] (intravenous, bi-phasic), the “Half-time of clearance, rapid phase” value is reported as 0.027 h and the “Half-time of clearance, slow phase” value is recorded as 1.61 h.
